# Measured values: patent US5637619A, “Antitumor 2-aminocarbonyl-1, 2-bis(methylsulfonyl)-1-(substituted)hydrazines” (Yale University, priority 1995, dated 1997)
# Several values for one entry are separate records, joined by “and”; a condition that tells them apart may be missing. Identical values can stand only once.
# Key:
# [1] = system: M109 lung carcinoma; test: M109 lung carcinoma, ip implanted; assay type: in vivo, BALB/c mice; settings: 50 mg/kg/injection, q4d × 3, ip, 10% DMSO in saline; highest dose tested
# Procedure: (§1) The M5076 reticulum cell sarcoma was passaged biweekly by sc transfer of tumor fragments into C57BL/6 mice, and the M109 lung carcinoma was similarly passaged in BALB/c mice. The LX-1 human lung carcinoma was passaged sc every two to three weeks in BALB/c-background athymic (nu/nu) mice. For use in these systems, compound III was dissolved in: (a) 100% DMSO and administered by iv injection in a fixed volume of 10 microliters; or (b) DMSO diluted with saline to a final concentration of 10% DMSO and administered iv in a volume of 0.01 milliliter/g of body weight. […] Mitomycin C and cyclophosphamide were dissolved and administered in saline. BCNU and MeCCNU were dissolved in ethanol and diluted 1:9 (v/v) with water prior to administration.
# Five mice per group were employed in experiments with the B16F10 melanoma, and 8 mice per group with the M5076 sarcoma, the M109 carcinoma and the LX-1 carcinoma. […] Therapeutic results are presented in terms of: (a) increases in lifespan reflected by the relative median survival time (MST) of treated versus control groups (i.e., %T/C values), and by long-term survivors, and (b) primary tumor growth inhibition (i.e., T-C values) determined by calculating the relative median times for treated (T) and control untreated (C) mice to grow tumors of a 0.5 g size for the LX-1 carcinoma or a 1 g size for the murine neoplasms. […]
# [2] = system: M109 lung carcinoma; test: M109 lung carcinoma, sc implanted; assay type: in vivo, BALB/c mice
# Procedure: as §1
# (§2) Five mice per group were employed in experiments with the B16F10 melanoma, and 8 mice per group with the M5076 sarcoma, the M109 carcinoma and the LX-1 carcinoma. A minimum of two dose levels per compound were included in each evaluation and drug therapy was initiated 24 h after tumor implantation for the M5076 sarcoma and M109 carcinoma. In the LX-1 experiment, tumor bearing mice were selected and sorted into treatment and control groups on day 6 post-tumor implant such that all tumor weights ranged from 50-100 mg and median tumor weights per group were reasonably similar. Therapeutic results are presented in terms of: (a) increases in lifespan reflected by the relative median survival time (MST) of treated versus control groups (i.e., %T/C values), and by long-term survivors, and (b) primary tumor growth inhibition (i.e., T-C values) determined by calculating the relative median times for treated (T) and control untreated (C) mice to grow tumors of a 0.5 g size for the LX-1 carcinoma or a 1 g size for the murine neoplasms. Tumor weights were interchangeable with tumor size on the basis of 1 mm^3 =1 mg. […] The activity criterion for tumor inhibition was a delay in tumor growth consistent with one log10 cell kill (LCK). The absolute T-C value needed to attain this level of efficacy varied from experiment to experiment and depended upon the tumor volume doubling time of the control mice in each study. Treated mice dying prior to day 10 in the ip M109 experiment, or dying before their tumors achieved 0.5 g for the LX-1 carcinoma or 1 g in size for all other sc tumor models, were considered to have died from drug toxicity. Groups of mice with more than one death due to drug toxicity were not used in the evaluation of antitumor efficacy. Statistical evaluations of data were performed using Gehan's generalized Wilcoxan test (Gehan, Biometrika, 1965, 52, 203-233).
# Compound III was also evaluated against the M109 lung carcinoma implanted subcutaneously (sc). In the initial test using this model, a dose of 50 mg/kg per injection of this compound was administered intravenously (iv) in 10% DMSO in saline every fourth day for a total of three injections. […] Mitomycin C, used as a reference drug, produced a maximum %T/C of 103 and a delay in tumor growth of 10 days (data not shown). A subsequent evaluation of compound III was performed using four different doses on a slightly different schedule, i.e., 24, 32, 48 and 64 mg/kg administered every third day for four total injections, and two vehicles, 10% DMSO in saline and 100% DMSO. […] Cyclophosphamide and mitomycin C were included as reference drugs in the last experiment. The former compound produced a maximum %T/C of 143 and a delay in tumor growth of 8.8 days, while mitomycin C produced a maximum %T/C of 134 and a T-C value of 9.3 days (data not shown). As reported earlier, compound X achieved a maximum %T/C of 136 and a maximum T-C value of 14.5 days against this tumor (Shyam, et al., J. Med. Chem., 1993, 36, 3496).
# [3] = system: LX-1 human lung carcinoma; test: LX-1 human lung carcinoma xenograft, sc in athymic mice; assay type: in vivo, human tumor in athymic (nu/nu) mice; settings: 40 mg/kg/injection, q2d × 5 from day 6, iv, 100% DMSO
# Procedure: as §1, §2
# The human lung tumor, LX-1, xenografted sc in athymic mice, was also used to examine the antineoplastic potential of compound III. […]
# [4] = system: M5076 reticulum cell sarcoma; test: M5076 reticulum cell sarcoma, sc implanted; assay type: in vivo, C57BL/6 mice; settings: 48 mg/kg/injection, q2d × 5, iv, 100% DMSO
# Procedure: as §1, §2
# Compound III was also evaluated against the M5076 reticulum cell sarcoma implanted sc. When administered iv at a level of 48 mg/kg per injection in 100% DMSO every other day for five days, compound III cured 6 out of 8 mice and consequently, no median time (T-C value) to reach 1 gram size tumors was expressed for this group. Tumor growth in mice receiving only 100% DMSO was indistinguishable from that of untreated control animals. 1-(2-Chloroethyl)-3-(4-methylcyclohexyl)-1-nitrosourea (MeCCNU) and BCNU were included in this experiment for comparison. The former achieved a maximum %T/C of 128 and a delay in tumor growth of 33.5 days at 16 mg/kg per injection administered iv every fourth day for three total injections, while BCNU, administered iv on the same treatment schedule, produced a %T/C in excess of 157, with 2 out of 8 cures, and a T-C of >62 days (data not shown).
# [5] = experiment a, 50 mg/kg/injection, q4d × 3, iv, 10% DMSO in saline
# [6] = experiment b, 64 mg/kg/injection, q3d × 4, iv, 100% DMSO
smiles,measurement,setting,value
"CS(=O)(=O)N(CCCl)N(C(=O)NCCCl)S(C)(=O)=O [Compound III, 1,2-bis(methylsulfonyl)-1-(2-chloroethyl)-2-(2-chloroethyl)aminocarbonylhydrazine]",%T/C (median survival time),[1],267%
same,lethality (in words),"[2]; 48 mg/kg per injection, q3d × 4, iv, 10% DMSO in saline",excessively lethal
same,"antitumor effect versus 10% DMSO formulation, statistics (in words)","[2]; 64 mg/kg in 100% DMSO vs best T-C in 10% DMSO in saline, p<0.01",statistically superior (p<0.01)
same,treatment-associated lethalities (in words),"[2]; 64 mg/kg per injection, q3d × 4, iv, 100% DMSO",without causing any treatment-associated lethalities
same,%T/C (median survival time),[2]; [5],115%
same,"T-C, delay in tumor growth",[2]; [5],8.3 days
same,activity assessment of %T/C (in words),"[2]; experiment a, 50 mg/kg/injection, q4d × 3, iv, criterion T/C ≥125%",not considered to be an active result
same,"%T/C (median survival time), maximum","[2]; experiment b, 24 mg/kg/injection, q3d × 4, iv, 10% DMSO in saline",143%
same,"T-C, maximum delay in tumor growth","[2]; experiment b, 32 mg/kg/injection, q3d × 4, iv, 10% DMSO in saline",9.3 days
same,"%T/C (median survival time), maximum",[2]; [6],145%
same,"T-C, delay in tumor growth",[2]; [6],17.8 days
same,"T-C, median delay in tumor growth to 0.5 g",[3],14.5 days
same,log10 cell kill (LCK),[3],1.6 LCK
same,%T/C (median survival time),[4],> 157%
same,Cures/Total,[4],6/8 and 6 out of 8
